Measured values reported in US20200397795A1, “PROPHYLACTIC TREATMENT OF VENOUS THROMBOEMBOLISM” (JANSSEN PHARMACEUTICALS, INC., priority 2019, published 2020).

Key:
[1] = tested on: coagulation parameters (PT, PiCT, D-dimer); assay: MAGELLAN (Study 1): pharmacodynamics (PT, PiCT, D-dimer); format: in vivo, human; conditions: for Prothrombin time, overall median: full profile sampling
Method: (§1) Full profile pharmacodynamics (PD) sampling was performed in parallel to the PK samples on Day 1 and Day 10. In addition, sparse PD sampling was performed in nearly all subjects at 5 predefined time points: prior to study drug administration, around the time of peak plasma concentrations (2 to 4 hours after intake of the rivaroxaban tablet or rivaroxaban placebo tablet) on the first, 10th and 35th day of study drug administration, and before study drug administration on Day 10.
Coagulation parameters assessed included international normalized ratio (INR), prothrombin time (PT), prothrombinase-induced clotting time (PiCT), and the fibrin degradation product, D-dimer. Pharmacodynamic parameters assessed included changes to baseline of the maximal effect (Emax) and changes to baseline at trough (Etrough).
as §1, with “Two sets of samples were evaluated for PD parameters: Full” for “Full”, “PD” for “pharmacodynamics (PD)”, “sampling” for “sampling was performed”, “approximately” for “around”

[2] = tested on: venous thromboembolism (VTE) in MAGELLAN subpopulation; assay: Retrospective analysis of MAGELLAN subpopulation (five bleeding risk factors excluded): efficacy; format: in vivo, human; conditions: for Primary efficacy endpoint outcome, incidence: Day 10, per-protocol analysis set; for Asymptomatic lower extremity proximal DVT, incidence / VTE-related death, incidence: Day 35
Source text: Using key exclusion criteria from Study 2: MARINER to exclude subjects with a higher risk of bleeding, a subpopulation of Study 1: MAGELLAN was retrospectively analyzed to re-evaluate benefit-risk in this subpopulation, which included efficacy endpoints of symptomatic VTE and VTE-related death and safety endpoints of major bleeding events. The key exclusion criteria from Study 2: MARINER that were retrospectively applied to the Study 1: MAGELLAN population for this analysis included: active gastroduodenal ulcer within 3 months of randomization/currently symptomatic; any bleeding within 3 months prior to randomization or during index hospitalization; active cancer at randomization; medical history of severe bronchiectasis/pulmonary cavitation; or dual antiplatelet therapy at baseline. Subjects that met one or more of these criteria prior to or at randomization using standardized MedDRA queries or preferred terms of MedDRA version 13.1 based on data entered into the case report forms in the original MAGELLAN database were excluded from the subpopulation analysis.
The MAGELLAN study (Study 1) randomized 8,101 patients from 562 sites in 52 countries and the safety population of patients that received at least one dose of study medication was 7,998 patients. The five key risk factors for major bleeding events in MAGELLAN were identified using study data forms as described herein. With the retrospective use of these risk factors, 1,551 patients were excluded from MAGELLAN and the remaining 6,447 patients, approximately 80% of MAGELLAN, represented the subpopulation. Patients in both treatment groups had no differences in baseline characteristics, and had similar medical histories, with at least 99% of patients having complete immobility or decreased mobility and median total number of days in hospital of 10.

[3] = acute respiratory insufficiency, Baseline
[4] = acute respiratory insufficiency, Day 1 peak
[5] = acute respiratory insufficiency, Day 10 peak
[6] = acute respiratory insufficiency, Day 10 trough
[7] = entire study population, Baseline
[8] = entire study population, Day 1 peak
[9] = entire study population, Day 10 peak
[10] = entire study population, Day 35 peak

Molecule	Mean peak concentration expressed in IU/mL (PiCT two step) ([1]; Day 1)	Mean peak concentration expressed in IU/mL (PiCT two step) ([1]; Day 10)	D-dimer, median [1, 3]	D-dimer, median [1, 4]	D-dimer, median [1, 5]	D-dimer, median [1, 6]	D-dimer, median [1, 7]	D-dimer, median [1, 8]	D-dimer, median [1, 9]	D-dimer, median [1, 10]	Prothrombin time, median ([1]; sparse sampling, Baseline)	Prothrombin time, median ([1]; sparse sampling, Day 1 peak)	Prothrombin time, median ([1]; sparse sampling, Day 10 peak)	Prothrombin time, median ([1]; sparse sampling, Day 35 peak)	Primary efficacy endpoint outcome, incidence [2]	Asymptomatic lower extremity proximal DVT, incidence [2]	VTE-related death, incidence [2]	Primary efficacy outcome, incidence ([2]; Day 35, mITT)	other results
Enoxaparin	0.32 IU/mL	0.31 IU/mL	0.57 µg/mL	0.66 µg/mL	0.70 µg/mL	0.46 µg/mL	0.95 µg/mL	0.94 µg/mL	0.66 µg/mL	0.67 µg/mL	14.4 s	14.8 s	14.2 s	13.8 s	3.0%	4.4%	1.0%	5.7%	Baseline value expressed in IU/mL (PiCT two step) ([1]; Day 1): below the lower limit of quantitation; Trough concentration expressed in IU/mL (PiCT two step) ([1]; Day 10): 0.11 IU/mL; Influence on prothrombin time ([1]; in vivo): no influence; Change in clotting time, PiCT one step ([1]; sparse sampling): No change; Prolongation of PiCT two step assay ([1]; sparse sampling, Day 1): 23.6 s; Prolongation of PiCT two step assay ([1]; sparse sampling, Day 10): 19.8 s
O=C(NC[C@H]1CN(c2ccc(N3CCOCC3=O)cc2)C(=O)O1)c1ccc(Cl)s1 [Rivaroxaban, 5-chloro-N-({(5S)-2-oxo-3-[4-(3-oxo-4-morpholinyl)phenyl]-1,3,oxazolidin-5-yl}methyl)-2-thiophenecarboxamide]	below the lower limit of quantitation	below the lower limit of quantitation	1.48 µg/mL	1.44 µg/mL	1.37 µg/mL	1.18 µg/mL	0.94 µg/mL	0.90 µg/mL	0.64 µg/mL	0.45 µg/mL	14.3 s	19.3 s	19.3 s	18.6 s	2.4%	3.0%	0.6%	3.9%	Mean peak concentration of rivaroxaban (PiCT one step) ([1]; Day 1): 198.8 µg/L; Mean peak concentration of rivaroxaban (PiCT one step) ([1]; Day 10): 202.78 µg/L; Mean peak concentration of rivaroxaban (PiCT one step) ([1]; Day 35): 168 µg/L; D-dimer, median ([1]; acute infectious disease, Baseline): 1.76 µg/mL; D-dimer, median ([1]; acute infectious disease, Day 1 peak): 2.07 µg/mL; D-dimer, median ([1]; acute infectious disease, Day 10 peak): 2.13 µg/mL; D-dimer, median ([1]; acute infectious disease, Day 10 trough): 1.74 µg/mL; Prothrombin time, overall median ([1]; peak Day 1): 23.5 s; Prothrombin time, overall median ([1]; peak Day 10): 23.2 s; Change in clotting time, PiCT two step ([1]; sparse sampling): No change; Prolongation of PiCT one step assay ([1]; sparse sampling, Day 1): 14.6 s; Prolongation of PiCT one step assay ([1]; sparse sampling, Day 10): 13.1 s; Primary efficacy endpoint, RR vs enoxaparin ([2]; Day 10, per-protocol): 0.820; Primary efficacy outcome, RR vs enoxaparin ([2]; Day 35, mITT): 0.68
